For this test, the system named is P388 leukemia ip, CD2F1 mice, survival T/C. In words: NCI In Vivo Anticancer Drug Screen. Data for tumor model P388 Leukemia (intraperitoneal) in CD2F1 (CDF1) mice. To be noted: endpoint: median survival time, higher = longer survival. The essentials: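 Mice carrying the transplanted tumor received test compound or vehicle. Survival was recorded in each group, and the value is the treated-group measurement divided by that of the vehicle-treated control group.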

[1] abbreviates: dose: 100.0 mg/kg/injection, schedule: Q01DX009 (ip), vehicle: saline with Tween-80.
The mark [2] stands for this setting: dose: 50.0 mg/kg/injection, schedule: Q01DX005 (ip), vehicle: Klucel (hydroxypropylcellulose) (HPC).
Setting [3] is: dose: 100.0 mg/kg/injection, schedule: Q01DX005 (ip), vehicle: Klucel (hydroxypropylcellulose) (HPC).
The mark [4] stands for this setting: dose: 200.0 mg/kg/injection, schedule: Q01DX005 (ip), vehicle: Klucel (hydroxypropylcellulose) (HPC).
The mark [5] stands for this setting: dose: 50.0 mg/kg/injection, schedule: Q01DX009 (ip), vehicle: saline with Tween-80.
Where [6] appears, read: dose: 60.0 mg/kg/injection, schedule: Q01DX005 (ip), vehicle: Klucel (hydroxypropylcellulose) (HPC).
The mark [7] stands for this setting: dose: 50.0 mg/kg/injection, schedule: Q01DX005 (ip), vehicle: saline with Tween-80.
[8] abbreviates: dose: 100.0 mg/kg/injection, schedule: Q01DX005 (ip), vehicle: saline with Tween-80.
[9] abbreviates: dose: 25.0 mg/kg/injection, schedule: Q01DX005 (ip), vehicle: Klucel (hydroxypropylcellulose) (HPC).

Inconclusive results and toxic doses are left out.

As for `CCC1CC2CN(CCc3c([nH]c4ccccc34)C(C(=O)OC)(c3cc4c(cc3OC)N(C)C3C(O)(C(=O)OC)C(OC(C)=O)C5(CC)C=CCN6CCC43C65)C2)C1` (stereo not drawn), the T/C by setting is: (dose: 0.05 mg/kg/injection, schedule: Q01DX009 (ip), vehicle: Klucel (hydroxypropylcellulose) (HPC)) 123 % of control; (dose: 0.06 mg/kg/injection, schedule: Q01DX009 (ip), vehicle: water) 124 % of control; (dose: 0.25 mg/kg/injection, schedule: Q04DX003 (ip), vehicle: water) 150 % of control; (dose: 0.4 mg/kg/injection, schedule: Q01DX009 (ip), vehicle: Klucel (hydroxypropylcellulose) (HPC)) 169 % of control; (dose: 0.5 mg/kg/injection, schedule: Q04DX003 (ip), vehicle: water) 160 % of control; (dose: 0.8 mg/kg/injection, schedule: Q01DX009 (ip), vehicle: Klucel (hydroxypropylcellulose) (HPC)) 169 % of control. In addition, the T/C is 223 % of control (dose: 1.0 mg/kg/injection, schedule: Q04DX003 (ip), vehicle: water); 232 % of control (dose: 2.0 mg/kg/injection, schedule: Q04DX003 (ip), vehicle: water); 115 % of control (dose: 4.0 mg/kg/injection, schedule: Q01DX009 (ip), vehicle: water).

On to `COc1cccc(CCNC(=O)CCN2C(=O)CCC2=O)c1`, for which the T/C under setting [1] is 105 % of control; the T/C (dose: 200.0 mg/kg/injection, schedule: Q01DX009 (ip), vehicle: saline with Tween-80) was 100 % of control; the T/C (dose: 400.0 mg/kg/injection, schedule: Q01DX009 (ip), vehicle: saline with Tween-80) is 110 % of control.

In the case of `CC(/C=C/c1ccccc1)=N\NC(=O)c1ccc(O)cc1`, the T/C is 101 % of control under setting [2], 97 % of control under setting [3] and 93 % of control under setting [4].

Take `Brc1ccc(-c2ccc3nnnn3n2)s1`: the T/C by setting is: under setting [2], 91 % of control; under setting [3], 95 % of control; under setting [4], 87 % of control.

For the compound `O=P(c1ccccc1)(c1ccccc1)c1ccccc1OCc1cccc(COc2ccccc2P(=O)(c2ccccc2)c2ccccc2)n1`, the T/C is 99 % of control under setting [2], 91 % of control under setting [3] and 97 % of control under setting [4].

As to `COc1cccc2c1C(=O)c1c(O)c3c(c(O)c1C2=O)CC(O)(C(C)=O)CC3OC1CC(NCC2OC(C(=O)O)C(O)C2O)C(O)C(C)O1` (stereo not drawn), the T/C is, setting by setting: (dose: 3.13 mg/kg/injection, schedule: Q04DX003 (ip), vehicle: water) 99 % of control; (dose: 6.25 mg/kg/injection, schedule: Q04DX003 (ip), vehicle: water) 102 % of control; (dose: 12.5 mg/kg/injection, schedule: Q04DX003 (ip), vehicle: water) 109 % of control; (dose: 25.0 mg/kg/injection, schedule: Q04DX003 (ip), vehicle: water) 116 % of control; (dose: 50.0 mg/kg/injection, schedule: Q04DX003 (ip), vehicle: water) 110 % of control.

`COc1ccc2c(NCCCCCCCCCCNc3c4ccccc4nc4cc(OC)ccc34)c3ccccc3nc2c1`: the T/C is 153 % of control (dose: 2.5 mg/kg/injection, schedule: Q01DX009 (ip), vehicle: other) and 155 % of control (dose: 5.0 mg/kg/injection, schedule: Q01DX009 (ip), vehicle: other).

Turning to `N#CC1CCCCCc2c1[nH]c1ccccc21` (stereo not drawn), the T/C runs as follows: (dose: 25.0 mg/kg/injection, schedule: Q01DX009 (ip), vehicle: saline with Tween-80) 97 % of control; under setting [5], 103 % of control; under setting [1], 103 % of control.

As for `CCOC(=O)C(=C\c1nncn1-c1ccccc1)/C=C(/O)c1ccccc1`, the T/C is, setting by setting: (dose: 15.0 mg/kg/injection, schedule: Q01DX005 (ip), vehicle: Klucel (hydroxypropylcellulose) (HPC)) 97 % of control; (dose: 30.0 mg/kg/injection, schedule: Q01DX005 (ip), vehicle: Klucel (hydroxypropylcellulose) (HPC)) 93 % of control; under setting [6], 87 % of control.

Take `O=C(O)CC1CCC1CC(=O)O` (stereo not drawn): the T/C is 95 % of control under setting [5] and 95 % of control under setting [1].

On to `C[N+](C)(C)CCNP(=O)(Oc1ccccc1)c1ccccc1` (stereo not drawn), for which the T/C is, setting by setting: under setting [7], 103 % of control; under setting [8], 94 % of control.

Consider `O=S(=O)(O)SCCNCCc1ccccn1`, for which the T/C is, setting by setting: (dose: 12.5 mg/kg/injection, schedule: Q01DX005 (ip), vehicle: water) 104 % of control; (dose: 25.0 mg/kg/injection, schedule: Q01DX005 (ip), vehicle: water) 109 % of control; (dose: 50.0 mg/kg/injection, schedule: Q01DX005 (ip), vehicle: water) 109 % of control; (dose: 100.0 mg/kg/injection, schedule: Q01DX005 (ip), vehicle: water) 107 % of control.

For `CCC1CN2CCC1CC2C(O)c1ccnc2ccc(OC)cc12` (stereo not drawn), the T/C is 100 % of control under setting [7] and 98 % of control under setting [8].

Regarding `CC(=NCc1ccccc1)Nc1ccc(NC(=O)c2ccc(C(=O)Nc3ccc(NC(C)=NCc4ccccc4)cc3)cc2)cc1`, the T/C is 98 % of control under setting [9], 95 % of control under setting [2], 94 % of control under setting [3] and 99 % of control under setting [4].

On to `O=C(OCC1OC(n2cc(C(F)(F)F)c(=O)[nH]c2=O)CC1O)c1ccc([N+](=O)[O-])cc1` (stereo not drawn), for which the T/C by setting is: (dose: 6.25 mg/kg/injection, schedule: Q01DX005 (ip), vehicle: Klucel (hydroxypropylcellulose) (HPC)) 110 % of control; (dose: 12.5 mg/kg/injection, schedule: Q01DX005 (ip), vehicle: Klucel (hydroxypropylcellulose) (HPC)) 110 % of control; under setting [9], 115 % of control; under setting [2], 161 % of control.

In the case of `COC(=O)c1nc(N)nc(C(=O)OC)c1C(=O)c1cccc([N+](=O)[O-])c1`, the T/C under setting [6] is 100 % of control and the T/C (dose: 120.0 mg/kg/injection, schedule: Q01DX005 (ip), vehicle: Klucel (hydroxypropylcellulose) (HPC)) is 101 % of control.

For `CC1C2=C(CC(=O)NC2=O)C(=O)N1Cc1ccccc1` (stereo not drawn), the T/C (dose: 50.0 mg/kg/injection, schedule: Q01DX009 (ip), vehicle: Klucel (hydroxypropylcellulose) (HPC)) was 103 % of control; the T/C (dose: 100.0 mg/kg/injection, schedule: Q01DX009 (ip), vehicle: Klucel (hydroxypropylcellulose) (HPC)) is 106 % of control; the T/C (dose: 200.0 mg/kg/injection, schedule: Q01DX009 (ip), vehicle: Klucel (hydroxypropylcellulose) (HPC)) is 97 % of control.

For the compound `CC1(CCl)COP(=O)(NN)OC1` (stereo not drawn), the T/C is 101 % of control (dose: 60.0 mg/kg/injection, schedule: Q01DX005 (ip), vehicle: saline) and 102 % of control (dose: 120.0 mg/kg/injection, schedule: Q01DX005 (ip), vehicle: saline).

As for `CC1CCC2(C(=O)O)CCC3(C)C(=CCC4C5(C)CCC(OC(=O)/C=C/c6ccccc6)C(C)(C)C5CCC43C)C2C1C` (stereo not drawn), the T/C (dose: 7.44 mg/kg/injection, schedule: Q01DX009 (ip), vehicle: Klucel (hydroxypropylcellulose) (HPC)) was 107 % of control; the T/C (dose: 14.88 mg/kg/injection, schedule: Q01DX009 (ip), vehicle: Klucel (hydroxypropylcellulose) (HPC)) was 100 % of control; the T/C (dose: 29.76 mg/kg/injection, schedule: Q01DX009 (ip), vehicle: Klucel (hydroxypropylcellulose) (HPC)) was 101 % of control.

As for `CC1C2C=CC1C(c1c3ccc(=O)cc-3oc3cc(O)ccc13)C2C(=O)O` (stereo not drawn), the T/C is, setting by setting: (dose: 60.0 mg/kg/injection, schedule: Q01DX005 (ip), vehicle: saline with Tween-80) 99 % of control; (dose: 120.0 mg/kg/injection, schedule: Q01DX005 (ip), vehicle: saline with Tween-80) 100 % of control; (dose: 240.0 mg/kg/injection, schedule: Q01DX005 (ip), vehicle: saline with Tween-80) 101 % of control.

`Nc1nc2c(c(=O)[nH]1)NC(CN(C(=O)CCCl)c1ccc(C(=O)NC(CCC(=O)O)C(=O)O)cc1)CN2` (stereo not drawn): the T/C was 101 % of control (dose: 50.0 mg/kg/injection, schedule: Q01DX001 (ip), vehicle: alkali diluted with saline); 104 % of control (dose: 100.0 mg/kg/injection, schedule: Q01DX001 (ip), vehicle: alkali diluted with saline); 101 % of control (dose: 200.0 mg/kg/injection, schedule: Q01DX001 (ip), vehicle: alkali diluted with saline).

The values are drawn from PubChem BioAssay AID330 (DTP/NCI, 2004).
